Test results: publication PMC6572064, “Discovery of 2-(1-(3-(4-Chloroxyphenyl)-3-oxo- propyl)pyrrolidine-3-yl)-1H-benzo[d]imidazole-4-carboxamide: A Potent Poly(ADP-ribose) Polymerase (PARP) Inhibitor for Treatment of Cancer” (Molecules, 2019)
pIC50: −log10 of the molar value. Like-named read-outs stand apart in the source and are kept apart here.

Assays:
[1] = target: T1, PARP-1 (Homo sapiens, UniProt P09874); assay: PARP-1 inhibition assay (PARP-1 Chemiluminescent Assay Kit, BPS Bioscience); format: biochemical; conditions: 10 nM compound
T1 construct: purchased BPS Bioscience 80569
Protocol: (§1) The PARP-1 and PARP-2 inhibition assays were performed in outsourcing, by a CRO company, Shanghai Medicilon Inc. (Shanghai, China). […] Briefly, PARP-1 or PARP-2 biotinylated substrate was incubated with compounds or solvent control at varying concentrations and an assay buffer containing the PARP-1 or PARP-2 enzyme.

[2] = target: T2, PARP-2 (Homo sapiens, UniProt Q9UGN5); assay: PARP-2 inhibition assay (PARP-2 Chemiluminescent Assay Kit, BPS Bioscience); format: biochemical; conditions: 10 nM compound
T2 construct: purchased BPS Bioscience 80552
Protocol: as §1

[3] = tested on: MDA-MB-436 (a BRCA-1-mutated breast cancer cell line); assay: Cell proliferation assay, three-day, CellTiter-Glo, MDA-MB-436; format: cell-based; conditions: Homo sapiens; for inhibition at 0.00508 µM: MDA-MB-436, MDA-MB-436, Conc. 0.00508 uM; for inhibition at 0.0152 µM: MDA-MB-436, MDA-MB-436, Conc. 0.0152 uM; for inhibition at 0.0457 µM: MDA-MB-436, MDA-MB-436, Conc. 0.0457 uM; for inhibition at 0.41 µM: MDA-MB-436, MDA-MB-436, Conc. 0.41 uM; for inhibition at 1.23 µM: MDA-MB-436, MDA-MB-436, Conc. 1.23 uM; for inhibition at 3.7 µM: MDA-MB-436, MDA-MB-436, Conc. 3.70 uM; for inhibition at 11.11 µM: MDA-MB-436, MDA-MB-436, Conc. 11.11 uM; for inhibition at 33.33 µM: MDA-MB-436, MDA-MB-436, Conc. 33.33 uM; for inhibition at 100 µM: MDA-MB-436, MDA-MB-436, Conc. 100.00 uM; for pIC50: MDA-MB-436, 72 h, CellTiter-Glo, read-out: MDA-MB-436 IC50
Outline: (§2)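 Luminescent ATP read-out (CellTiter-Glo, 60 min at room temperature) quantified viability after a 72 h compound exposure at 37 °C, 5% CO2. Compounds, diluted from DMSO stocks into growth medium, were added to cells plated the previous day.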

[4] = tested on: CAPAN-1 (a BRCA-2-mutated pancreatic cancer cell line); assay: Cell proliferation assay, three-day, CellTiter-Glo, CAPAN-1; format: cell-based; conditions: Homo sapiens; for pIC50: CAPAN-1, 72 h, CellTiter-Glo, read-out: CAPAN-1 IC50; for inhibition at 0.00508 µM: CAPAN-1, Conc. 0.00508 uM; for inhibition at 0.0152 µM: CAPAN-1, Conc. 0.0152 uM; for inhibition at 0.0457 µM: CAPAN-1, Conc. 0.0457 uM; for inhibition at […]: CAPAN-1, Conc. 0.14 uM; for inhibition at 0.41 µM: CAPAN-1, Conc. 0.41 uM; for inhibition at 1.23 µM: CAPAN-1, Conc. 1.23 uM; for inhibition at 3.7 µM: CAPAN-1, Conc. 3.70 uM; for inhibition at 11.11 µM: CAPAN-1, Conc. 11.11 uM; for inhibition at 33.33 µM: CAPAN-1, Conc. 33.33 uM; for inhibition at 100 µM: CAPAN-1, Conc. 100.00 uM
Outline: as §2

[5] = supplement sheet, read-out: 10 nM inhibition% PAPR-1
[6] = read-out: PARP-1 Inhibition % (10 nM)
[7] = supplement sheet, read-out: 10 nM inhibition% PAPR-2
[8] = read-out: PARP-2 Inhibition % (10 nM)

T2 sequence (Q9UGN5 whole entry): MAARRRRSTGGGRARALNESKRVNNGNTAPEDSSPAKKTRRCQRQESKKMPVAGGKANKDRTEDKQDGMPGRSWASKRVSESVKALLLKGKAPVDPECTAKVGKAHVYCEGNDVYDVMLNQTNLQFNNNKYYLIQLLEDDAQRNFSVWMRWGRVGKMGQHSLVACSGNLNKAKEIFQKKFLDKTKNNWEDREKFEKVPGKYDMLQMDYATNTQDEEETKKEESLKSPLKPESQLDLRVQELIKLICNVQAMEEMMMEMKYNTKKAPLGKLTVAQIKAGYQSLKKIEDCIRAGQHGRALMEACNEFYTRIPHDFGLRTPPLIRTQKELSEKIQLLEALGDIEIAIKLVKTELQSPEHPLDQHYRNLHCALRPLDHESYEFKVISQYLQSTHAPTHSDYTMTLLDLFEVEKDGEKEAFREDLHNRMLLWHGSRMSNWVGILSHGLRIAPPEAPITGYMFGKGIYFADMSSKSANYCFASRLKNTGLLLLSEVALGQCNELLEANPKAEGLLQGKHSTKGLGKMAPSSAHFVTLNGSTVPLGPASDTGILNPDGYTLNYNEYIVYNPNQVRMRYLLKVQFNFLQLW
T1 sequence (P09874 whole entry): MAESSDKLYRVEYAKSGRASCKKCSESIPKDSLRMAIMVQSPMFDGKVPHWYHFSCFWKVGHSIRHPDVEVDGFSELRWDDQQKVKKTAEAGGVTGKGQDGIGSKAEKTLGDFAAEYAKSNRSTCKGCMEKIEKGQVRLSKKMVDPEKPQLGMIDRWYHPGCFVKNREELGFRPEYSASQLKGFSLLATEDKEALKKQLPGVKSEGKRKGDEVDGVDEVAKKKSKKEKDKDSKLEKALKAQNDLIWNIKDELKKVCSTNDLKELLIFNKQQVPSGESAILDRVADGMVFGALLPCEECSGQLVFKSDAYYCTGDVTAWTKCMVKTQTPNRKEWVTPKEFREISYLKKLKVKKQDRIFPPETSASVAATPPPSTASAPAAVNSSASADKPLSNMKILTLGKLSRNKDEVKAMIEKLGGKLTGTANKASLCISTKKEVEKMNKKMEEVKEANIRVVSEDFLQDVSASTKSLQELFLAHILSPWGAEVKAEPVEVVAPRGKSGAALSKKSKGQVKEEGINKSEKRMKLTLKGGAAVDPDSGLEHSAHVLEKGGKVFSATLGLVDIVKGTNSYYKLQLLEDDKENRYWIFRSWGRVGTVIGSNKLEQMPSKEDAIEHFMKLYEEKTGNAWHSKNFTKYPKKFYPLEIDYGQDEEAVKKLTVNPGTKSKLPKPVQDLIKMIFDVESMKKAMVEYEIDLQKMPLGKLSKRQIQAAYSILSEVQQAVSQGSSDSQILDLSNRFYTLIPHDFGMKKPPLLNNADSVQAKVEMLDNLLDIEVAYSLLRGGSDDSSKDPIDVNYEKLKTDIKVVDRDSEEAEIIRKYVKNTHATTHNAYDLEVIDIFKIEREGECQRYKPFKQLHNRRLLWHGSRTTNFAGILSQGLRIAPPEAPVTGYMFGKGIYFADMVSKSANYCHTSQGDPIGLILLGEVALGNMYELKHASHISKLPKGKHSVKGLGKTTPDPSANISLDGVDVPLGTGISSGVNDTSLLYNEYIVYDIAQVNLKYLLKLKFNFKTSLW

## NCCCN1CCC(c2nc3c(C(N)=O)cccc3[nH]2)C1 (stereo not drawn) [Compound 5cl, 2-(1-(3-Aminopropyl)pyrrolidin-3-yl)-1H-benzo[d]imidazole-4-carboxamide]
[1]; [5]
  inhibition at 0.01 µM: 26.8%
[1]; [6]
  inhibition at 0.01 µM: 26.8%
[2]; [7]
  inhibition at 0.01 µM: 46.4%
[2]; [8]
  inhibition at 0.01 µM: 46.4%
[3]; replicate 1, read-out: Inh % 1
  inhibition at 0.00508 µM: 4.5%
  inhibition at 0.0152 µM: 0.4%
  inhibition at 0.0457 µM: -13.5%
  inhibition at 0.41 µM: -7.3%
  inhibition at 1.23 µM: -9%
  inhibition at 3.7 µM: -7.4%
  inhibition at 11.11 µM: -5.4%
  inhibition at 33.33 µM: 1.9%
  inhibition at 100 µM: 7.4%
[3]; replicate 2, read-out: Inh % 2
  inhibition at 0.00508 µM: -3.7%
  inhibition at 0.0152 µM: -4.9%
  inhibition at 0.0457 µM: -10.1%
  inhibition at 0.41 µM: -7.6%
  inhibition at 1.23 µM: -8.7%
  inhibition at 3.7 µM: -9.8%
  inhibition at 11.11 µM: -5.2%
  inhibition at 33.33 µM: -7%
  inhibition at 100 µM: 2.1%
[3]
  pIC50: < 4.00
[4]
  pIC50: < 4.00
[4]; replicate 1, read-out: Inh % 1
  inhibition at 0.00508 µM: 0.0228%
  inhibition at 0.0152 µM: -3.3%
  inhibition at 0.0457 µM: 0.238%
  inhibition at […]: 4.7%
  inhibition at 0.41 µM: 1.3%
  inhibition at 1.23 µM: -5.5%
  inhibition at 3.7 µM: 4.6%
  inhibition at 11.11 µM: -2.8%
  inhibition at 33.33 µM: -7.9%
  inhibition at 100 µM: -10.8%
[4]; replicate 2, read-out: Inh % 2
  inhibition at 0.00508 µM: -3.6%
  inhibition at 0.0152 µM: -4.8%
  inhibition at 0.0457 µM: -10.3%
  inhibition at […]: -9.8%
  inhibition at 0.41 µM: 5.2%
  inhibition at 1.23 µM: 3.8%
  inhibition at 3.7 µM: -3%
  inhibition at 11.11 µM: -3.6%
  inhibition at 33.33 µM: -7.8%
  inhibition at 100 µM: -6.6%

## NCCN1CCC(c2nc3c(C(N)=O)cccc3[nH]2)C1 (stereo not drawn) [Compound 5cm, 2-(1-(2-Aminoethyl)pyrrolidin-3-yl)-1H-benzo[d]imidazole-4-carboxamide]
[1]; [5]
  inhibition at 0.01 µM: 24.8%
[1]; [6]
  inhibition at 0.01 µM: 24.8%
[2]; [7]
  inhibition at 0.01 µM: 32.8%
[2]; [8]
  inhibition at 0.01 µM: 32.8%
[3]; replicate 1, read-out: Inh % 1
  inhibition at 0.00508 µM: -8.5%
  inhibition at 0.0152 µM: 1.1%
  inhibition at 0.0457 µM: -11.2%
  inhibition at 0.41 µM: -6.2%
  inhibition at 1.23 µM: -5.3%
  inhibition at 3.7 µM: -4.9%
  inhibition at 11.11 µM: -3.6%
  inhibition at 33.33 µM: 3%
  inhibition at 100 µM: 16.7%
[3]; replicate 2, read-out: Inh % 2
  inhibition at 0.00508 µM: -9.3%
  inhibition at 0.0152 µM: -4.9%
  inhibition at 0.0457 µM: -10.5%
  inhibition at 0.41 µM: -16.8%
  inhibition at 1.23 µM: -11.1%
  inhibition at 3.7 µM: -6.8%
  inhibition at 11.11 µM: -6.5%
  inhibition at 33.33 µM: -4.3%
  inhibition at 100 µM: 7.9%
[3]
  pIC50: < 4.00
[4]
  pIC50: < 4.00
[4]; replicate 1, read-out: Inh % 1
  inhibition at 0.00508 µM: -3.2%
  inhibition at 0.0152 µM: -3%
  inhibition at 0.0457 µM: -3.1%
  inhibition at […]: 0.182%
  inhibition at 0.41 µM: 4%
  inhibition at 1.23 µM: -2.5%
  inhibition at 3.7 µM: 0.8%
  inhibition at 11.11 µM: -3.4%
  inhibition at 33.33 µM: -1.1%
  inhibition at 100 µM: 0.459%
[4]; replicate 2, read-out: Inh % 2
  inhibition at 0.00508 µM: 4.5%
  inhibition at 0.0152 µM: -13.2%
  inhibition at 0.0457 µM: -9.3%
  inhibition at […]: -8.2%
  inhibition at 0.41 µM: -2.2%
  inhibition at 1.23 µM: -0.9%
  inhibition at 3.7 µM: 2.3%
  inhibition at 11.11 µM: 4.2%
  inhibition at 33.33 µM: -7.7%
  inhibition at 100 µM: -6%

## NC(=O)c1cccc2[nH]c(C3CCN(CCCNC(=O)c4ccccc4)C3)nc12 (stereo not drawn) [Compound 5cn, 2-(1-(3-Benzamidopropyl)pyrrolidin-3-yl)-1H-benzo[d]imidazole-4-carboxamide]
[1]; [5]
  inhibition at 0.01 µM: 19.4%
[1]; [6]
  inhibition at 0.01 µM: 19.4%
[2]; [7]
  inhibition at 0.01 µM: 39.1%
[2]; [8]
  inhibition at 0.01 µM: 39.1%
[3]; replicate 1, read-out: Inh % 1
  inhibition at 0.00508 µM: 1.6%
  inhibition at 0.0152 µM: -1.4%
  inhibition at 0.0457 µM: -9.2%
  inhibition at 0.41 µM: -8.3%
  inhibition at 1.23 µM: -3%
  inhibition at 3.7 µM: -5.2%
  inhibition at 11.11 µM: -2.1%
  inhibition at 33.33 µM: 12.1%
  inhibition at 100 µM: 21.7%
[3]; replicate 2, read-out: Inh % 2
  inhibition at 0.00508 µM: -5.1%
  inhibition at 0.0152 µM: -3.5%
  inhibition at 0.0457 µM: -11%
  inhibition at 0.41 µM: -13.4%
  inhibition at 1.23 µM: -5.3%
  inhibition at 3.7 µM: -8.2%
  inhibition at 11.11 µM: -9.2%
  inhibition at 33.33 µM: 1.5%
  inhibition at 100 µM: 20.8%
[3]
  pIC50: < 4.00
[4]
  pIC50: < 4.00
[4]; replicate 1, read-out: Inh % 1
  inhibition at 0.00508 µM: 9.5%
  inhibition at 0.0152 µM: -9.3%
  inhibition at 0.0457 µM: 1%
  inhibition at […]: 4.6%
  inhibition at 0.41 µM: -2.8%
  inhibition at 1.23 µM: 3.1%
  inhibition at 3.7 µM: 5.2%
  inhibition at 11.11 µM: 2.8%
  inhibition at 33.33 µM: 5.2%
  inhibition at 100 µM: 27.8%
[4]; replicate 2, read-out: Inh % 2
  inhibition at 0.00508 µM: -3.8%
  inhibition at 0.0152 µM: -9.4%
  inhibition at 0.0457 µM: 6.5%
  inhibition at […]: -10%
  inhibition at 0.41 µM: -4.1%
  inhibition at 1.23 µM: -3.2%
  inhibition at 3.7 µM: -3%
  inhibition at 11.11 µM: -7.6%
  inhibition at 33.33 µM: 2%
  inhibition at 100 µM: 14.3%
